In US20250213558A1, “T-TYPE CALCIUM CHANNEL MODULATORS COMPRISING A PIPERAZINE OR 1,4-DIAZEPANE CORE AND METHODS OF USE THEREOF” (Praxis Precision Medicines, Inc., priority 2022, published 2025):
Where two headings read alike, the source gives them in different places.

Target: T1, Human Cav3.1 calcium channel (Homo sapiens, UniProt O43497)
T1 construct: expressed in transfected cells; host or cells: HEK-293 natClytin/TASK1+Cav3.1 cell line
Assay: Human Cav3.1 calcium channel patch clamp assay (SyncroPatch 384PE; single point and IC50, voltage dependent block)
Format: cell-based
Conditions: for % Inhibition (Single Point Data): patch clamp
Procedure: Certain compounds (as indicated) were tested for Human Cav3.1 calcium channel activity via a patch clamp assay as disclosed herein.
Pulse generation and data collection were performed with PatchController384 V1.3.0 and DataController384 V1.2.1 (Nanion Technologies). Offline analysis was performed using Excel and Graphpad Prism (V 8.4.2) with complete data files uploaded to Dotmatics. The access resistance and apparent membrane capacitance were estimated using built-in protocols. Current was recorded in whole cell configuration from a population of cells. The cells were lifted, triturated, and resuspended at 800,000 cells/ml. The cells were allowed to recover in the cell hotel prior to experimentation. Currents were recorded at room temperature. The external solution contained the following (in mM): NaCl 80, NMDG 60, KCl 4, MgCl2 1, CaCl2 6, glucose 5 and HEPES 10 (pH=7.4, Osmolarity˜300 mOsm). The extracellular solution was used as the wash, reference and compound delivery solution.
The compound plate was created at 2× concentrated in the extracellular solution. The compound was diluted to 1:2 when added to the recording well. The amount of DMSO in the extracellular solution was held constant at the level used for the highest tested concentration. For the voltage clamp experiments on Cav3.1, data were sampled at 10 KHz. After establishment of the seal and the passage in the whole cell configuration, the cells were held at −120 mV. Cav3.1 current was evoked using a 100 ms step to −20 mV (to measure resting state block), followed by a 1600 ms step to −65 mV and a second 100 ms step to −20 mV (to measure voltage dependent block). The voltage protocol was applied every 15 seconds in the absence and in the presence of the compounds under investigation. […] Current amplitude (pA) was measured in the peak 1 and 2. The average of last 3 sweeps of each liquid period (vehicle, compound under investigation, full block) was calculated. Nickel-sensitive current was used to calculate the % of inhibition in the presence of the compound under investigation.

[1] = Testing Conc 1.25, HEK-293 natClytin/TASK1+Cav3.1 cell line
[2] = voltage dependent block (VDB), HEK-293 natClytin/TASK1+Cav3.1 cell line, read-out: Cav3.1 IC50

T1 sequence (O43497 whole entry): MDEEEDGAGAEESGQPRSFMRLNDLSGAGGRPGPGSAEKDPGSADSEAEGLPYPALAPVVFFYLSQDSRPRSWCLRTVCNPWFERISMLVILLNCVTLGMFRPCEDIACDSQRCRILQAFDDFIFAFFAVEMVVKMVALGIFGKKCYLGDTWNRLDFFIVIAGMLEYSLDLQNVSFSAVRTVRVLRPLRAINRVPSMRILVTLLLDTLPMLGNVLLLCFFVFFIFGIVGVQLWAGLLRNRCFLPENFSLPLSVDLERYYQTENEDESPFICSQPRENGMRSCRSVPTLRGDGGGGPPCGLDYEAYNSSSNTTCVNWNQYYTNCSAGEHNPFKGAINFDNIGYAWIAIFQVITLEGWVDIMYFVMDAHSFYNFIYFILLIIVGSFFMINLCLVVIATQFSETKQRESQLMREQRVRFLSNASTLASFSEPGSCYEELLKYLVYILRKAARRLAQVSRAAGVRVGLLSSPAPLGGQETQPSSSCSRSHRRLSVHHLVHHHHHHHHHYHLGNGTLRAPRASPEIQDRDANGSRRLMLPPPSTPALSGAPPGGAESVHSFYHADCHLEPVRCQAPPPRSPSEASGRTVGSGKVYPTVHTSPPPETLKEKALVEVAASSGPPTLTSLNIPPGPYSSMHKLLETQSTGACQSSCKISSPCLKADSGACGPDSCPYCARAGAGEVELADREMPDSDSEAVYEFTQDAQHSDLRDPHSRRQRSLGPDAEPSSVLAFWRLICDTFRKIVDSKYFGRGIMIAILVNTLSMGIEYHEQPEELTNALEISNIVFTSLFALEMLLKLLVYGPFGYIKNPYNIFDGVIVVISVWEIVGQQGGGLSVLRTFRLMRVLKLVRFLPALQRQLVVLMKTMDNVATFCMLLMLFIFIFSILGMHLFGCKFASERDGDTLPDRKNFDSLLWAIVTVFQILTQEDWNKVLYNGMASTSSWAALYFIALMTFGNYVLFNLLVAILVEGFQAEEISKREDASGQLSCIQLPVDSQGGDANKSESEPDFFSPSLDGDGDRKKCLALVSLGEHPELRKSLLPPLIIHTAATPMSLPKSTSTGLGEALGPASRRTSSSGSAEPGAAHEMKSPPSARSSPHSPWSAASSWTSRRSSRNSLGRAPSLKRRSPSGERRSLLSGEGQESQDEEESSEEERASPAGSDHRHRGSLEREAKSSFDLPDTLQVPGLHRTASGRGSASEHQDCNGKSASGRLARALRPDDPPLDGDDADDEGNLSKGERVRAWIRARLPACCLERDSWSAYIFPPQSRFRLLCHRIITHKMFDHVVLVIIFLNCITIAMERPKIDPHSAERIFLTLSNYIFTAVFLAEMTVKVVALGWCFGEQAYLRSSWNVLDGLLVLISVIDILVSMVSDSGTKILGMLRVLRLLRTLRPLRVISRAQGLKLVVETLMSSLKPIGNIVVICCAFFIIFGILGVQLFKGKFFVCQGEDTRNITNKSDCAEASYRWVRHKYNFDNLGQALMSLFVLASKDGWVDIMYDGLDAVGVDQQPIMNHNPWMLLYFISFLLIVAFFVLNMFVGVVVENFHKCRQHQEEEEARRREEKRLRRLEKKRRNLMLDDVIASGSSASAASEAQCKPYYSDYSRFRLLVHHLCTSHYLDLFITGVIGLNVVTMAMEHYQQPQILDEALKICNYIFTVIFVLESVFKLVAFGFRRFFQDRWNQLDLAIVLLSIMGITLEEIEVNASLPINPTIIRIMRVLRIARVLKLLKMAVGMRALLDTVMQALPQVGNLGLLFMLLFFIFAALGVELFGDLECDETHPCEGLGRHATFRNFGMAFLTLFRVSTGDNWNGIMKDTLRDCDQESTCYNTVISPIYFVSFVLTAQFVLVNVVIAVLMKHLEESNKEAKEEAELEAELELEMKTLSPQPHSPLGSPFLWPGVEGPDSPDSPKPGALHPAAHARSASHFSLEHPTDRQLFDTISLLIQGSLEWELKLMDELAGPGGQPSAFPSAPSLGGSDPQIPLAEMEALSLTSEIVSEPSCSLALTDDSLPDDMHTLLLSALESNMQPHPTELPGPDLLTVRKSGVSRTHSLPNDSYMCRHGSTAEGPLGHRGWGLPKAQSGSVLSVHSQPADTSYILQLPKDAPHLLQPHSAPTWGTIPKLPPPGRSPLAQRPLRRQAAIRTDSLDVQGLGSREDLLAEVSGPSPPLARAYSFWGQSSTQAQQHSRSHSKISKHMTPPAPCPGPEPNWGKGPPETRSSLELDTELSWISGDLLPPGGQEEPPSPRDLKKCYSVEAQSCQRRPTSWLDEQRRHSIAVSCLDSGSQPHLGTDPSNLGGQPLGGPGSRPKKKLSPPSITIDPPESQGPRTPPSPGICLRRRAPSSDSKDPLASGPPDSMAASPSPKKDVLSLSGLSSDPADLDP

CC(C)(NC(=O)CN1CC2CC1CN2CC(=O)Nc1cc(F)cc(OC(F)F)c1)C(F)(F)F (stereo not drawn) [Compound 55]
% Inhibition (Single Point Data) [1]: 76.829%

O=C(CN1CC2CC1CN2CC(=O)NC1(C(F)(F)F)CC1)Nc1cc(F)cc(OC(F)F)c1 (stereo not drawn) [Compound 56]
% Inhibition (Single Point Data) [1]: 70.217% | IC50 [2]: 297 nM

[2H]C([2H])([2H])C(NC(=O)CN1CC2CC1CN2CC(=O)Nc1cc(F)cc(Cl)c1)(C([2H])([2H])[2H])C([2H])([2H])[2H] (stereo not drawn) [Compound 57]
% Inhibition (Single Point Data) [1]: 95.078%

CC(C)(C)NC(=O)CN1C[C@@H]2C[C@H]1CN2CC(=O)Nc1cc(F)cc(Cl)c1 [Compound 58]
% Inhibition (Single Point Data) [1]: 91.889%

CC(C)(C)NC(=O)CN1C[C@H]2C[C@@H]1CN2CC(=O)Nc1cc(F)cc(Cl)c1 [Compound 59]
% Inhibition (Single Point Data) [1]: 49.275% | IC50 [2]: 925 nM

CC(C)(C)NC(=O)CN1C[C@@H]2C[C@H]1CN2CCNc1nccc2ccc(Cl)cc12 [Compound 60]
% Inhibition (Single Point Data) [1]: 60.189% | IC50 [2]: 605 nM

CC(C)(C)NC(=O)CN1CCN(Cc2nnc(-c3cc(F)cc(Cl)c3)[nH]2)CC1 [Compound 61, N-tert-butyl-2-[4-[[5-(3-chloro-5-fluoro-phenyl)-4H-1,2,4-triazol-3-yl]methyl]piperazin-1-yl]acetamide]
% Inhibition (Single Point Data) (Testing Conc 1, HEK-293 natClytin/TASK1+Cav3.1 cell line): 40.739% | IC50 [2]: 2800 nM

CC(C)(C)NC(=O)CN1C2CC1CN(Cc1nc3c(Cl)cc(F)cc3[nH]1)C2 [Compound 62, N-(tert-butyl)-2-(3-((4-chloro-6-fluoro-1H-benzo[d]imidazol-2-yl)methyl)-3,6-diazabicyclo[3.1.1]heptan-6-yl)acetamide]
IC50: < 78.2 nM | % Inhibition (Single Point Data) [1]: 102.05%

CC(C)(C)NC(=O)CN1CC2CCC1CN2Cc1nc2c(Cl)cc(F)cc2[nH]1 (stereo not drawn) [Compound 63]
% Inhibition (Single Point Data) [1]: 93.839% | IC50 [2]: 167 nM

CC(C)(C)NC(=O)CN1C2CCC1CN(Cc1nc3c(Cl)cc(F)cc3[nH]1)C2 [Compound 64]
IC50: < 78.2 nM | % Inhibition (Single Point Data) [1]: 100.15%

CC(C)(C)NC(=O)CN1C2CCC1CN(Cc1nc3c(Cl)cc(F)cc3[nH]1)CC2 (stereo not drawn) [Compound 65]
% Inhibition (Single Point Data) [1]: 82.104% | IC50 [2]: 708 nM

COc1cccc(CN2CCN(Cc3nc4c(Cl)cc(F)cc4[nH]3)CC2)c1 [Compound 66]
% Inhibition (Single Point Data) [1]: 88.018% | IC50 [2]: 306 nM

Fc1cc(Cl)c2nc(CN3CCN(Cc4cccc(Cl)c4)CC3)[nH]c2c1 [Compound 67]
% Inhibition (Single Point Data) [1]: 83.039% | IC50 [2]: 490 nM

Fc1cc(Cl)c2nc(CN3CCN(Cc4ccc5c(c4)OCCO5)CC3)[nH]c2c1 [Compound 68]
% Inhibition (Single Point Data) [1]: 87.04% | IC50 [2]: 215 nM

Fc1cc(Cl)c2nc(CN3CCN(CCc4ccccc4)CC3)[nH]c2c1 [Compound 69]
% Inhibition (Single Point Data) [1]: 86.68% | IC50 [2]: 394 nM

CC(C)(C)NC(=O)CN1CCCN(Cc2nc3c(Cl)cc(F)cc3[nH]2)CC1 [Compound 70]
% Inhibition (Single Point Data) [1]: 87.175% | IC50 [2]: 545 nM

Fc1cc(Cl)c2nc(CN3CCN(CCC4CCCC4)CC3)[nH]c2c1 [Compound 71]
% Inhibition (Single Point Data) [1]: 94.005%

Fc1cc(Cl)c2nc(CN3CCN(Cc4cc5ccccc5[nH]4)CC3)[nH]c2c1 [Compound 72]
% Inhibition (Single Point Data) [1]: 81.94% | IC50 [2]: 395 nM

CC(C)(C)CCN1CCN(Cc2nc3c(Cl)cc(F)cc3[nH]2)CC1 [Compound 73]
% Inhibition (Single Point Data) [1]: 84.745% | IC50 [2]: 188 nM

CC(C)(C)NC(=O)CN1CC2CCC1CCN2Cc1nc2c(Cl)cc(F)cc2[nH]1 (stereo not drawn) [Compound 74]
% Inhibition (Single Point Data) [1]: 72.584% | IC50 [2]: 575 nM

CCC(C)(C)NC(=O)CN1C2CCC1CN(Cc1nc3c(Cl)cc(F)cc3[nH]1)C2 [Compound 75]
% Inhibition (Single Point Data) [1]: 99.169%

CC(C)(NC(=O)CN1C2CCC1CN(Cc1nc3c(Cl)cc(F)cc3[nH]1)C2)C(F)(F)F [Compound 76]
% Inhibition (Single Point Data) [1]: 100.39%

CC(C)(C)CCN1C2CCC1CN(Cc1nc3c(Cl)cc(F)cc3[nH]1)C2 [Compound 77]
% Inhibition (Single Point Data) [1]: 100.45%

O=C(CN1C2CCC1CN(Cc1nc3c(Cl)cc(F)cc3[nH]1)C2)N1CCCCC1 [Compound 78]
% Inhibition (Single Point Data) [1]: 97.937%

CC(C)(CO)NC(=O)CN1C2CCC1CN(Cc1nc3c(Cl)cc(F)cc3[nH]1)C2 [Compound 79]
% Inhibition (Single Point Data) [1]: 100%

COCC(C)(C)NC(=O)CN1C2CCC1CN(Cc1nc3c(Cl)cc(F)cc3[nH]1)C2 [Compound 80]
% Inhibition (Single Point Data) [1]: 96.659%

O=C(CN1C2CCC1CN(Cc1nc3c(Cl)cc(F)cc3[nH]1)C2)N1CCC(F)(F)CC1 [Compound 81]
% Inhibition (Single Point Data) [1]: 100.06%

CC1(NC(=O)CN2C3CCC2CN(Cc2nc4c(Cl)cc(F)cc4[nH]2)C3)COC1 [Compound 82]
% Inhibition (Single Point Data) [1]: 98.209%

O=C(CN1C2CCC1CN(Cc1nc3c(Cl)cc(F)cc3[nH]1)C2)N1CCOCC1 [Compound 83]
% Inhibition (Single Point Data) [1]: 84.836% | IC50 [2]: 441 nM

Fc1cc(Cl)c2nc(CN3CC4CCC(C3)N4CCC3CCCC3)[nH]c2c1 [Compound 84]
% Inhibition (Single Point Data) [1]: 101%

COC(=O)C(C)(C)N(C)C(=O)CN1C2CCC1CN(Cc1nc3c(Cl)cc(F)cc3[nH]1)C2 [Compound 85]
% Inhibition (Single Point Data) [1]: 66.404% | IC50 [2]: 375 nM

CC1(C)CCN1C(=O)CN1C2CCC1CN(Cc1nc3c(Cl)cc(F)cc3[nH]1)C2 [Compound 86]
% Inhibition (Single Point Data) [1]: 103.03% | IC50 [2]: 150 nM

CN(C(=O)CN1C2CCC1CN(Cc1nc3c(Cl)cc(F)cc3[nH]1)C2)C(C)(C)C(=O)O [Compound 87]
% Inhibition (Single Point Data) [1]: 7.971%

O=C(CN1C2CCC1CN(Cc1nc3c(Cl)cc(F)cc3[nH]1)C2)N1CCC(O)CC1 [Compound 88]
% Inhibition (Single Point Data) [1]: 61.278%

COC1(CCN2C3CCC2CN(Cc2nc4c(Cl)cc(F)cc4[nH]2)C3)CCCC1 [Compound 89]
% Inhibition (Single Point Data) [1]: 98.148%

Fc1cc(Cl)c2nc(CN3CC4CCC(C3)N4CCN3CCC(F)(F)CC3)[nH]c2c1 [Compound 90]
% Inhibition (Single Point Data) [1]: 99.043%

CC1(C)CN(C(=O)CN2C3CCC2CN(Cc2nc4c(Cl)cc(F)cc4[nH]2)C3)C1 [Compound 91]
% Inhibition (Single Point Data) [1]: 97.882%

OC1(CCN2C3CCC2CN(Cc2nc4c(Cl)cc(F)cc4[nH]2)C3)CCCC1 [Compound 92]
% Inhibition (Single Point Data) [1]: 98.505% | IC50 [2]: 175 nM

CC1(C)CCN(C(=O)CN2C3CCC2CN(Cc2nc4c(Cl)cc(F)cc4[nH]2)C3)C1 [Compound 93]
% Inhibition (Single Point Data) [1]: 93.884% | IC50 [2]: 284 nM

CC1(C)CCN1C(=O)CN1C2CC1CN(Cc1nc3c(Cl)cc(F)cc3[nH]1)C2 [Compound 94]
% Inhibition (Single Point Data) [1]: 89.896% | IC50 [2]: 249 nM

Fc1cc(Cl)c2nc(CN3CC4CCC(C3)N4CCOC3CCCCC3)[nH]c2c1 [Compound 95]
% Inhibition (Single Point Data) [1]: 100.41%

CC1(C)CC(CN2C3CCC2CN(Cc2nc4c(Cl)cc(F)cc4[nH]2)C3)CCO1 (stereo not drawn) [Compound 96]
% Inhibition (Single Point Data) [1]: 93.367% | IC50 [2]: 205 nM

O=C1CCCCN1CCN1C2CCC1CN(Cc1nc3c(Cl)cc(F)cc3[nH]1)C2 [Compound 97]
% Inhibition (Single Point Data) [1]: 79.865% | IC50 [2]: 367 nM

Fc1cc(Cl)c2nc(CN3CC4CC(C3)N4CC3CCC(F)(F)CC3)[nH]c2c1 [Compound 98]
% Inhibition (Single Point Data) [1]: 92.211% | IC50 [2]: 231 nM

CN(C(=O)CN1C2CC1CN(Cc1nc3c(Cl)cc(F)cc3[nH]1)C2)C1(C)CCC1 [Compound 100]
% Inhibition (Single Point Data) [1]: 88.827%

CN(C(=O)CN1C2CC1CN(Cc1nc3c(Cl)cc(F)cc3[nH]1)C2)C(C)(C)C [Compound 101]
% Inhibition (Single Point Data) [1]: 96.57%

Cc1ccc2ccnc(NCC3CCN(CC(=O)NC(C)(C)C)CC3)c2n1 [Compound 102]
% Inhibition (Single Point Data) [1]: 25.803% | IC50 [2]: 4430 nM

CC1(C)CCCC(=O)N1CCN1C2CC1CN(Cc1nc3c(Cl)cc(F)cc3[nH]1)C2 [Compound 103]
% Inhibition (Single Point Data) [1]: 96.655% | IC50 [2]: 109 nM

Fc1cc(Cl)c2nc(CN3CC4CC(C3)N4CCC3CCC(F)(F)CC3)[nH]c2c1 [Compound 104]
IC50: < 78.2 nM | % Inhibition (Single Point Data) [1]: 99.877%

CC1(CCN2C3CC2CN(Cc2nc4c(Cl)cc(F)cc4[nH]2)C3)CCOCC1 [Compound 105]
% Inhibition (Single Point Data) [1]: 73.309%

CC1(CN2C3CC2CN(Cc2nc4c(Cl)cc(F)cc4[nH]2)C3)CCOCC1 [Compound 106]
% Inhibition (Single Point Data) [1]: 52.218% | IC50 [2]: 1110 nM

CC(C)(C)CCCN1C2CC1CN(Cc1nc3c(Cl)cc(F)cc3[nH]1)C2 [Compound 107]
IC50: < 78.2 nM | % Inhibition (Single Point Data) [1]: 101.43%

OC1(CCN2C3CC2CN(Cc2nc4c(Cl)cc(F)cc4[nH]2)C3)CCCC1 [Compound 108]
% Inhibition (Single Point Data) [1]: 79.783% | IC50 [2]: 338 nM
